In patent US7709566B2, “Polytetrafluoroethylene aqueous dispersion and its product” (Asahi Glass Company, Limited, priority 2005, dated 2010):

How the values were obtained:
[1] = test system: small animal; conditions: it has been pointed out; cited from earlier work
[2] = Measurement of 1-octanol/water partition coefficient (LogPOW) by HPLC, OECD Test Guideline 117; format: physicochemical; conditions: for LogPOW: 1-octanol/water, HPLC, OECD Test Guideline 117, column temperature 40° C.; for bioaccumulation potential: judged from the LogPOW value, compared to APFO
Protocol: In accordance with OECD Test Guideline 117, 1-octanol/water partition coefficient (LogPOW) of a fluorinated emulsifier was measured by using HPLC (high performance liquid chromatography).
Conditions for the measurement were as follows: column: TOSOH ODS-120T column (φ 4.6 mm×250 mm), eluent: acetonitrile/0.6 mass % of HClO4 solution=1/1 (vol/vol %), flow rate: […], sample amount: 300 μL, column temperature: 40° C., and detection light: UV 210 nm (WO2005-42593).
HPLC was carried out on standard substances (heptanoic acid, octanoic acid, nonanoic acid and decanoic acid) having known 1-octanol/water partition coefficients, and a calibration curve was prepared from the respective elution times and octanol/water partition coefficients of the respective standard substances. Based on this calibration curve, a value of partition coefficient (LogPOW) between 1-octanol and water was calculated from the elution time by HPLC of the fluorinated emulsifier.
Further, in general, in order to judge whether or not a chemical substance is apt to be accumulated in a living organism, a testing method for measurement of a partition coefficient (LogPOW) between 1-octanol and water, is stipulated. As the testing method, in addition to “Partition Coefficient (1-octanol/water) Shake Flask Method” as stipulated in OECD test guideline 107 and in Japanese Industrial Standards Z 7260-107 (2000), a HPLC method (high-performance liquid chromatography) as stipulated and published in OECD Test Guideline 117, is used. A compound having a large partition coefficient value has a large tendency for bioaccumulation, and a compound having a small value means a small tendency for bioaccumulation. In a case where the LogPOW value is less than 3.5, it is considered proper to judge that it is not a high-concentration, and bioaccumulation is also considered to be small.

LogPOW [2] | Compound | accumulation potential in a body of a small animal [1] | bioaccumulation potential [2]
4.03 | N.O=C(O)C(F)(OC(F)(F)C(F)(OC(F)(F)C(F)(F)F)C(F)(F)F)C(F)(F)F (stereo not drawn) [CF3CF2OCF(CF3)CF2OCF(CF3)COONH4] |  | high and higher bioaccumulation potential than APFO
3.13 | CF3CF2OCF2CF2OCF2COONH4 |  | low

Compound | LogPOW [2] | accumulation potential in a body of a small animal [1] | bioaccumulation potential [2]
N.O=C(O)C(F)(F)C(F)(F)C(F)(F)C(F)(F)C(F)(F)C(F)(F)C(F)(F)F [CF3(CF2)6COONH4, ammonium perfluorooctanoate] | 3.67 | has an accumulation potential | 
